Results: US5140009A (Tap Pharmaceuticals, Inc., priority 1990, dated 1992)
Numbered stars: 1 amine (or outer) side, 2 acyl side, 3 side chain; on linkers, the order of the positions; unused ones are H or OH. Square brackets hold non-standard residues; d marks the D form. Side chains are listed from the residue outwards. Peptide text beside a SMILES is read from it. * marks the point of attachment. Propanoyl(3-(4-F-phenyl)) = O=C(CCc1ccc(F)cc1)*; d1Nal = N[C@H](Cc1cccc2ccccc12)C(=O)O; Lys(iPr) = CC(C)NCCCC[C@H](N)C(=O)O; NMeY = CN[C@@H](Cc1ccc(O)cc1)C(=O)O; dBta = N[C@H](Cc1csc2ccccc12)C(=O)O; Pyrazinecarbonyl = O=C(c1cnccn1)*; Piperazinyl(4-Me) = CN1CCN(*)CC1; dCha = N[C@H](CC1CCCCC1)C(=O)O; Nicotinoyl = O=C(c1cccnc1)*; CO = O=C([*:1])[*:2]; Sar = CNCC(=O)O

Tests used:
male castrate rats = test: In vivo LH Inhibiton; parameters: species or system rat; details: table 4, 30 ug/kg subcutaneously by bolus injection, AUC of log (LHt /LHi)
Method: (c) In vivo LH Inhibiton. The compound to be tested is administered at 30 ug/kg subcutaneously by bolus injection to male castrate rats and blood samples are collected periodically over 24 hours. The AUC (area under the curve) of the LH suppression data as a function of time is calculated using the formula log (LHt /LHi) wherein LHt is the LH concentration in the blood at time t and LHi is the initial baseline LH concentration in the blood. The AUC values are negative numbers.

LHRH receptors = biological target: T1, LHRH receptors (Rattus norvegicus, UniProt P30969); test: Receptor Binding (radioligand receptor binding assay); details: rat pituitary membranes, 2 hours at 4° C.; for Ki: read-out: Receptor Binding pkI (converted)
T1 construct: Pituitary membranes containing LHRH receptors are prepared in batches from quick-frozen rat pituitaries; tissue Hilltop Labs; host or cells: rat pituitary membranes
T1 sequence (P30969 1-327): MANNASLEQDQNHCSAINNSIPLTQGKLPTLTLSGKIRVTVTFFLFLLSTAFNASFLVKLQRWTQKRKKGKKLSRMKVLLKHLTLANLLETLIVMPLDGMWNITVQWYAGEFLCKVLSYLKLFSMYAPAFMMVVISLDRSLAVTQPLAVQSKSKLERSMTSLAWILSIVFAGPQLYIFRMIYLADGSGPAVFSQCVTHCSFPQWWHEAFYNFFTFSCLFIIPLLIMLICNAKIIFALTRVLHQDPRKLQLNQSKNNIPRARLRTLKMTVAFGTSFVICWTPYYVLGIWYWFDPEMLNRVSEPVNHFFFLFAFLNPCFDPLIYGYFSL

castrated rats = test: In vivo LH Release; parameters: species or system rat; details: table 3, dose producing half-maximal LH release
Method: (d) In vivo LH Release. The compound to be tested is administered to castrated rats intraveneously and the serum LH concentration at various time points is measured by RIA. The time integrated LH response is calculated and the dose producing half-maximal LH release (ED50) is reported.

Rat pituitaries = biological target: T2, Rat pituitaries (Rattus norvegicus, UniProt P30969); test: In vitro LH release suppression by LHRH antagonists in presence of superagonist [D-Leu^6 -Pro^9 NHEt]LHRH (pA2); format: cell-based; details: negative log of concentration producing half-maximum suppression of LH
T2 sequence (P30969 1-327): T1 sequence (P30969 1-327)

CC(C)C[C@H](NC(=O)[C@@H](CCCCN)NC(=O)[C@H](Cc1ccc(O)cc1)N(C)C(=O)[C@H](CO)NC(=O)[C@@H](Cc1csc2ccccc12)NC(=O)CCc1ccc(F)cc1)C(=O)N[C@@H](CCCNC(=N)N)C(=O)N1CCC[C@H]1C(=O)N[C@H](C)C(N)=O [Compound 177, (3-10)[N-(3-(4-Fluorophenyl)propionyl)-D-3-Bal^3 -NMeTyr^5 -D-Lys^6 -D-Ala^10]LHRH] ({Propanoyl(3-(4-F-phenyl))}-[dBta]S[NMeY][dK]LRP[dA]-NH2)
AUC (24 hr. after 30 ug/kg) (male castrate rats): -938 | Ki (LHRH receptors; table 4, radioligand 50 pM): 0.00589 nM

CC(C)C[C@H](NC(=O)[C@@H](CCCCNC(=O)c1cccnc1)NC(=O)[C@H](Cc1ccc(O)cc1)N(C)C(=O)[C@H](CO)NC(=O)[C@@H](Cc1c[nH]c2ccccc12)NC(=O)CCc1ccc(F)cc1)C(=O)N[C@@H](CCCCNC(C)C)C(=O)N1CCC[C@H]1C(=O)N[C@H](C)C(N)=O [Compound 195, (3-10)[N-(3-(4-Fluorophenyl)propionyl)-D-Trp^3 -NMeTyr^5 -D-Lys^6 (N-epsilon-nicotinyl)-Lys^8 (N-epsilon-isopropyl)-D-Ala^10]LHRH] ({Propanoyl(3-(4-F-phenyl))}-[dW]S[NMeY][dK](Nicotinoyl)L[Lys(iPr)]P[dA]-NH2)
AUC (24 hr. after 30 ug/kg) (male castrate rats): -158 | Ki (LHRH receptors; table 4, radioligand 50 pM): 0.0234 nM

CC(C)C[C@H](NC(=O)[C@@H](CCCCNC(=O)c1cccnc1)NC(=O)[C@H](Cc1ccc(O)cc1)N(C)C(=O)[C@H](CO)NC(=O)[C@@H](Cc1cccc2ccccc12)NC(=O)CCc1ccc(F)cc1)C(=O)N[C@@H](CCCCNC(C)C)C(=O)N1CCC[C@H]1C(=O)N[C@H](C)C(N)=O [Compound 197, (3-10)[N-(3-(4-Fluorophenyl)propionyl)-D-1-Nal^3 -NMeTyr^5 -D-Lys^6 (N-epsilon-nicotinyl)-Lys^8 (N-epsilon-isopropyl)-D-Ala^10]LHRH] ({Propanoyl(3-(4-F-phenyl))}-[d1Nal]S[NMeY][dK](Nicotinoyl)L[Lys(iPr)]P[dA]-NH2)
AUC (24 hr. after 30 ug/kg) (male castrate rats): -688 | Ki (LHRH receptors; table 4, radioligand 50 pM): 0.0112 nM

CC(C)C[C@H](NC(=O)[C@@H](CCCCNC(=O)c1cnccn1)NC(=O)[C@H](Cc1ccc(O)cc1)N(C)C(=O)[C@H](CO)NC(=O)[C@@H](Cc1cccc2ccccc12)NC(=O)CCc1ccc(F)cc1)C(=O)N[C@@H](CCCCNC(C)C)C(=O)N1CCC[C@H]1C(=O)N[C@H](C)C(N)=O [Compound 207, (3-10)[N-(3-(4-Fluorophenyl)propionyl)-D-1-Nal^3 -NMeTyr^5 -D-Lys^6 (N-epsilon-2-pyrazinyecarbonyl)-Lys^8 (N-epsilon-isopropyl)-D-Ala^10]LHRH] ({Propanoyl(3-(4-F-phenyl))}-[d1Nal]S[NMeY][dK](Pyrazinecarbonyl)L[Lys(iPr)]P[dA]-NH2)
AUC (24 hr. after 30 ug/kg) (male castrate rats): -412 | Ki (LHRH receptors; table 4, radioligand 50 pM): 0.00288 nM

CCNC(=O)[C@@H]1CCCN1C(=O)[C@H](CCCCNC(C)C)NC(=O)[C@H](CC(C)C)NC(=O)[C@@H](CCCCNC(=O)c1cccnc1)NC(=O)[C@H](Cc1ccc(O)cc1)N(C)C(=O)[C@H](CO)NC(=O)[C@@H](Cc1cccc2ccccc12)NC(=O)CCc1ccc(F)cc1 [Compound 209, N-(3-(4-Fluorophenyl)propionyl)-D-1-Nal-Ser-NMeTyr-D-Lys(N-epsilon-nicotinyl)-Leu-Lys(N-epsilon-isopropyl)-Pro-NHEt] ({Propanoyl(3-(4-F-phenyl))}-[d1Nal]S[NMeY][dK](Nicotinoyl)L[Lys(iPr)]P-NHEt)
AUC (24 hr. after 30 ug/kg) (male castrate rats): -343 | Ki (LHRH receptors; table 4, radioligand 50 pM): 0.0024 nM

CC(C)C[C@H](NC(=O)[C@@H](CCCCNC(=O)N1CCN(C)CC1)NC(=O)[C@H](Cc1ccc(O)cc1)N(C)C(=O)[C@H](CO)NC(=O)[C@@H](Cc1cccc2ccccc12)NC(=O)CCc1ccc(F)cc1)C(=O)N[C@@H](CCCNC(=N)N)C(=O)N1CCC[C@H]1C(=O)N[C@H](C)C(N)=O [Compound 211, N-(3-(4-Fluorophenyl)propionyl)-D-1-Nal-Ser-NMeTyr-D-Lys(N-epsilon-N'-N"-methylpiperazinecarbonyl)-Leu-Arg-Pro-D-AlaNH2] ({Propanoyl(3-(4-F-phenyl))}-[d1Nal]S[NMeY][dK]([CO-Piperazinyl(4-Me)])LRP[dA]-NH2)
AUC (24 hr. after 30 ug/kg) (male castrate rats): -449 | Ki (LHRH receptors; table 4, radioligand 50 pM): 0.0151 nM

CC(C)C[C@H](NC(=O)[C@@H](CCCCNC(=O)c1cccnc1)NC(=O)[C@H](Cc1ccccc1)NC(=O)[C@H](CO)NC(=O)[C@@H](Cc1cccc2ccccc12)NC(=O)CCc1ccc(F)cc1)C(=O)N[C@@H](CCCCNC(C)C)C(=O)N1CCC[C@H]1C(=O)N[C@H](C)C(N)=O [Compound 252, (3-10)[N-(3-(4-Fluorophenyl)propionyl)-D-1-Nal^3 -Phe^5 -D-Lys^6 (N-epsilon-nicotinyl)-Lys^8 (N-epsilon-isopropyl)-D-Ala^10]LHRH] ({Propanoyl(3-(4-F-phenyl))}-[d1Nal]SF[dK](Nicotinoyl)L[Lys(iPr)]P[dA]-NH2)
Ki (LHRH receptors; table 4, radioligand 50 pM): 0.0132 nM

CC(C)C[C@H](NC(=O)[C@@H](CCCCNC(=O)c1cccnc1)NC(=O)[C@H](Cc1ccc(O)cc1)N(C)C(=O)[C@H](CO)NC(=O)[C@@H](Cc1csc2ccccc12)NC(=O)CCc1ccc(F)cc1)C(=O)N[C@@H](CCCCNC(C)C)C(=O)N1CCC[C@H]1C(=O)N[C@H](C)C(N)=O [Compound 253, (3-10)[N-(3-(4-Fluorophenyl)propionyl)-D-3-Bal^3 -NMeTyr^5 -D-Lys^6 (N-epsilon-nicotinyl)-Lys^8 (N-epsilon-isopropyl)-D-Ala^10]LHRH] ({Propanoyl(3-(4-F-phenyl))}-[dBta]S[NMeY][dK](Nicotinoyl)L[Lys(iPr)]P[dA]-NH2)
Ki (LHRH receptors; table 4, radioligand 50 pM): 0.00933 nM

CC(C)C[C@H](NC(=O)[C@@H](CCCCNC(=O)c1cccnc1)NC(=O)[C@H](Cc1ccc(O)cc1)N(C)C(=O)[C@H](CO)NC(=O)[C@@H](CC1CCCCC1)NC(=O)CCc1ccc(F)cc1)C(=O)N[C@@H](CCCCNC(C)C)C(=O)N1CCC[C@H]1C(=O)N[C@H](C)C(N)=O [Compound 254, (3-10)[N-(3-(4-Fluorophenyl)propionyl)-D-Cha^3 -NMeTyr^5 -D-Lys^6 (N-epsilon-nicotinyl)-Lys^8 (N-epsilon-isopropyl)-D-Ala^10]LHRH] ({Propanoyl(3-(4-F-phenyl))}-[dCha]S[NMeY][dK](Nicotinoyl)L[Lys(iPr)]P[dA]-NH2)
Ki (LHRH receptors; table 4, radioligand 50 pM): 0.012 nM

CC(C)C[C@H](NC(=O)[C@@H](CCCCNC(=O)c1cccnc1)NC(=O)[C@H](Cc1ccc(O)cc1)N(C)C(=O)[C@H](CO)NC(=O)[C@@H](Cc1cccc2ccccc12)NC(=O)CCc1ccc(F)cc1)C(=O)N[C@@H](CCCCNC(C)C)C(=O)N1CCC[C@H]1C(=O)N(C)CC(N)=O [Compound 255, N-(3-(4-Fluorophenyl)propionyl)-D-1-Nal-Ser-NMeTyr-D-Lys(N-epsilon-nicotinyl)-Leu-Lys(N-epsilon-isopropyl)-Pro-SarNH2] ({Propanoyl(3-(4-F-phenyl))}-[d1Nal]S[NMeY][dK](Nicotinoyl)L[Lys(iPr)]P[Sar]-NH2)
Ki (LHRH receptors; table 4, radioligand 50 pM): 0.0151 nM

CC(C)C[C@H](NC(=O)CNC(=O)[C@H](Cc1ccc(O)cc1)NC(=O)[C@H](CO)NC(=O)[C@H](Cc1c[nH]c2ccccc12)NC(=O)[C@H](Cc1c[nH]cn1)NC(=O)[C@@H]1CCC(=O)N1)C(=O)N[C@@H](CCCNC(=N)N)C(=O)N1CCC[C@H]1C(=O)NCC(N)=O [LHRH, Luteinizing hormone releasing hormone]
ED50 ug/kg i.v. (castrated rats): 859 µg/kg

(2-9)[N-(N-alpha-Morpholinocarbonyl)-D,L-4-F-Phe^2 -D-Trp^6 -Pro^9 NHEt]LHRH [Compound 113]
LH Inhibition pA2 (Rat pituitaries; table 3): 8.63 | Receptor Binding pkI (LHRH receptors; table 3, radioiodinated [D-Leu^6 -des Gly^10 ]-LHRH ethyl amide 50 pM): 9.51

(3-10)[N-(3-(4-Fluorophenyl)propionyl)-D-1-Nal^3 -D-Lys^6 (N-epsilon-4-methoxybenzoyl)-Lys^8 (N-epsilon-isopropyl)-D-Ala^10 ]LHRH [Compound 206]
AUC (24 hr. after 30 ug/kg) (male castrate rats): -412

(3-10)[N-(3-(4-Fluorophenyl)propionyl)-D-Thia^3 -NMeTyr^5 -D-Lys^6 -D-Ala^ ]LHRH [Compound 166]
AUC (24 hr. after 30 ug/kg) (male castrate rats): -208

(3-10)[N-(3-(4-Fluorophenyl)propionyl)-D-Trp^3 -NMeTyr^5 -D-Lys^6 (N-epsilon-nicotinyl)-D-Ala^10 ]LHRH [Compound 163]
AUC (24 hr. after 30 ug/kg) (male castrate rats): -361

(3-10)[N-(3-(4-Fluorophenyl)propionyl)-D-Trp^3 -NMeTyr^5 -D-Lys^6 -D-Ala^10 ]LHRH [Compound 182]
LH Inhibition pA2 (Rat pituitaries; table 4): 9.32 | Receptor Binding pkI (LHRH receptors; table 4, radioligand 50 pM): 10.55
